Measured values from US8518903B2, “Use of toll-like receptor-9 agonists” (University of Pittsburgh—of the Commonwealth System of …, priority 2007, dated 2013).

Tested on: IEC-6 cells
Test: TLR4 and TLR9 expression and distribution in enterocytes (Western blot, immunofluorescence)
Assay type: cell-based
Excerpt: FIG. 12. TLR4 and TLR9 expression are unchanged by CpG-DNA and LPS in enterocytes. Western blot showing levels of TLR4 and TLR9 (relative to actin) in enterocytes which were either untreated (Ctrl) or treated with LPS, LPS+CpG, or CpG.
FIG. 13A-E. CpG-DNA causes a redistribution of TLR4 into internal structures in IEC-6 cells. Immunofluorescence studies showing TLR4 distribution in IEC-6 cells which were either untreated (A) or treated with (B) LPS; (C) LPS+CpG; or (D) CpG. (E) is a schematic drawing showing redistribution of TLR4 caused by TLR9.
FIG. 14A-D. LPS causes the internalization of TLR9, which is reversed by CpG-DNA. Immunofluoresence studies of IEC-6 cells showing TLR9 distribution in cells which were either (A) untreated; or treated with (B) LPS; (C) LPS+CpG; or (D) CpG.
Further experiments were performed to study the mechanism by which TLR9 suppresses the TLR4 activation.

## 5′-TCCATGACGTTCCTGACGTT-3′ [CpG-DNA]
IEC-6 cells, LPS + CpG
  LPS-caused internalization of TLR9: reversed
IEC-6 cells, immunofluorescence
  TLR4 distribution: causes a redistribution of TLR4 into internal enterocyte structures
Enterocytes treated with CpG-DNA and LPS
  TLR4 and TLR9 expression: unchanged
